These results are taken from US11076595B2, “1-(n,n-disubstituted carbamoyl) 4-(substituted sulfonyl)triazolin-5-one derivative, 4-(n,n-disubstituted carbamoyl) 1-(substituted sulfonyl)triazolin-5-one derivative, and herbicide containing said derivative as active ingredient” (HOKKO CHEMICAL INDUSTRY CO., LTD., priority 2017, dated 2021).

What all share (format): in vivo
The test system of assay [1] is Echinochloa crus-galli. Kind of assay: Test Example 4: herbicidal effect test by foliage treatment in upland field. As to conditions: upland field foliage treatment 7 days after sowing; 120 g/10a; evaluated 14 days after treatment. Here is the method: (§1) This test was performed with two replications per one formulation concentration plot, and 14 days after the formulation treatments, the weed suppression rate (%) was determined according to the following equation (Math. 1). Weed suppression rate (%)=(1−an average dry weight (g) of plants in treated plots/an average dry weight (g) of plants in untreated plots)×100 [Math. 1]
(§2) A pot having a size of 36 cm^2 was filled with field soil (alluvial soil) and after uniformly mixing the soil of the surface layer of 1 cm with 20 grains of each weed seed of crabgrass, Echinochloa crus-galli, Chenopodium album and Amaranthus viridis, the surface layer was pressed lightly. Seven days after the sowing, an emulsifiable concentrate prepared according to Formulation Example 5 by using the compound shown in Table 8 below was diluted with water, and the water-diluted formulation was sprayed on the soil surface at a ratio of 100 liter per 10 are. The application rate of the active ingredient, by conversion, corresponded to 120 g per 10 are. Fourteen days after the formulation treatment, the herbicidal effect was evaluated by the same criteria as in Test Example 1.

The next assay deals with Amaranthus viridis. The assay is described as above. The conditions noted are these: upland field foliage treatment 7 days after sowing; 120 g/10a; evaluated 14 days after treatment. Here is the method:
as §1, §2

In another assay the test system is Chenopodium album. The description is as above. The conditions noted are these: upland field foliage treatment 7 days after sowing; 120 g/10a; evaluated 14 days after treatment. Here is the method: as §1, §2
Another assay has as its system crabgrass. The assay is described as above. As to conditions: upland field foliage treatment 7 days after sowing; 120 g/10a; evaluated 14 days after treatment. On the procedure:
as §1, §2

Assay [2] relates to Echinochloa crus-galli. The assay can be described thus: Test Example 1: herbicidal effect test by soil treatment in paddy field. As to conditions: 120 g/10a, paddy soil treatment just after sowing, 14 days after treatment.
From the text: (§3) A Wagner pot having an area of 1/10000 are was filled with paddy field soil and after adding water, a chemical fertilizer (N:P:K=17:17:17) was mixed, followed by puddling. Thereafter, 30 grains of each of Echinochloa crus-galli, broad-leaved weed (Lindernia pyxidaria and Monochoria vaginalis) and Scirpus juncoides seeds were sown to a depth of 0 to 1 cm. Immediately after the sowing, the pot was flooded, and the depth of water was kept at about 3 cm. The pot was subsequently managed in a glass greenhouse. Just after that, an emulsifiable concentrate prepared according to Formulation Example 5 by using the compound shown in Table 5 below was diluted with water, and a predetermined amount of the water-diluted formulation was added dropwise. The application rate of the active ingredient, by conversion, corresponded to 120 g per 10 are.
as §1

The test system of assay [3] is Monochoria vaginalis. Described as above. The conditions noted are these: 120 g/10a, paddy soil treatment just after sowing, 14 days after treatment.
From the text: as §3, §1

Assay [4] has as its system Lindernia pyxidaria. The assay is described as above. As to conditions: 120 g/10a, paddy soil treatment just after sowing, 14 days after treatment.
From the text: as §3, §1

Assay [5] concerns Scirpus juncoides. Described as above. The conditions noted are these: 120 g/10a, paddy soil treatment just after sowing, 14 days after treatment.
From the text: as §3, §1

Assay [6] deals with Echinochloa crus-galli. The assay can be described thus: Test Example 2: herbicidal effect test by treatment during growing period in paddy field. As to conditions: treatment 7 days after sowing, 120 g/10a, evaluated 14 days after treatment. On the procedure: as §1
as §3, with “greenhouse. Seven days” for “greenhouse. Just”, “after sowing,” for “after that,”, “Table 6” for “Table 5”, “are. The test was performed with two replications per one formulation concentration plot, and 14 days after the formulation treatments, the weed suppression rate (%) was determined according to the equation (Math. 1).” for “are.”

For assay [7], the system named is Monochoria vaginalis. The description is as above. The conditions noted are these: treatment 7 days after sowing, 120 g/10a, evaluated 14 days after treatment. On the procedure:
as §1
as §3, with “greenhouse. Seven days” for “greenhouse. Just”, “after sowing,” for “after that,”, “Table 6” for “Table 5”, “are. The test was performed with two replications per one formulation concentration plot, and 14 days after the formulation treatments, the weed suppression rate (%) was determined according to the equation (Math. 1).” for “are.”

The test system of assay [8] is Lindernia pyxidaria. Described as above. The conditions noted are these: treatment 7 days after sowing, 120 g/10a, evaluated 14 days after treatment. On the procedure:
as §1
as §3, with “greenhouse. Seven days” for “greenhouse. Just”, “after sowing,” for “after that,”, “Table 6” for “Table 5”, “are. The test was performed with two replications per one formulation concentration plot, and 14 days after the formulation treatments, the weed suppression rate (%) was determined according to the equation (Math. 1).” for “are.”

Assay [9] deals with Scirpus juncoides. The description is as above. As to conditions: treatment 7 days after sowing, 120 g/10a, evaluated 14 days after treatment. Here is the method: as §1
as §3, with “greenhouse. Seven days” for “greenhouse. Just”, “after sowing,” for “after that,”, “Table 6” for “Table 5”, “are. The test was performed with two replications per one formulation concentration plot, and 14 days after the formulation treatments, the weed suppression rate (%) was determined according to the equation (Math. 1).” for “are.”

Take `CC(C)N(C(=O)n1ncn(S(=O)(=O)N(C)C)c1=O)c1ccc(Cl)nc1Cl` [Compound 1-1136]: in the assay on Echinochloa crus-galli [1], the “herbicidal effect (weed suppression rate), Echinochloa crus-galli” value (“herbicidal effect … Echinochloa crus-galli” below) came to 80%. Moreover, the “herbicidal effect (weed suppression rate), Amaranthus viridis” value (“herbicidal effect … Amaranthus viridis” below) in the assay with Amaranthus viridis is reported as 90%. The “herbicidal effect (weed suppression rate), Chenopodium album” value (“herbicidal effect … Chenopodium album” below) in the assay on Chenopodium album was determined as 80%. For the same compound, in the assay with crabgrass, the “herbicidal effect (weed suppression rate), Crabgrass” value (shortened to “herbicidal effect … Crabgrass”) is on record as 90%. Also, the “weed suppression rate, Echinochloa crus-galli” value in the assay with Echinochloa crus-galli [2] and in the assay on Echinochloa crus-galli [6] was 100% in each case. Further, the “weed suppression rate, Monochoria vaginalis” value in the assay on Monochoria vaginalis [3] worked out at 90%; in the assay with Monochoria vaginalis [7], 80%. Further, the “weed suppression rate, Lindemia pyxidaria” value with Lindernia pyxidaria [4] and in the assay with Lindernia pyxidaria [8] was 90% in each case. For the same compound, the “weed suppression rate, Scirpus juncoides” value in the assay on Scirpus juncoides [5] and in the assay with Scirpus juncoides [9] was 90% throughout.
`Cc1cc(F)ccc1N(C(=O)n1ncn(S(=O)(=O)C2CCCCC2)c1=O)C(C)C` [Compound 1-319]: in the assay on Echinochloa crus-galli [1], the “herbicidal effect … Echinochloa crus-galli” value came out at 70%. Further, the “herbicidal effect … Amaranthus viridis” value in the assay on Amaranthus viridis stood at 70%. Also, the “herbicidal effect … Chenopodium album” value with Chenopodium album worked out at 70%. Further, the “herbicidal effect … Crabgrass” value in the assay with crabgrass was 80%. Besides, the “weed suppression rate, Echinochloa crus-galli” value in the assay on Echinochloa crus-galli [2] and in the assay with Echinochloa crus-galli [6] was 100% throughout. For the same compound, the entries for the “weed suppression rate, Monochoria vaginalis” value in the assay on Monochoria vaginalis [3] and with Monochoria vaginalis [7] were 80% and 90%, respectively. For the same compound, the “weed suppression rate, Lindemia pyxidaria” value in the assay with Lindernia pyxidaria [4] and in the assay on Lindernia pyxidaria [8] was 80% each time. Further, the “weed suppression rate, Scirpus juncoides” value in the assay with Scirpus juncoides [5] worked out at 100%; in the assay on Scirpus juncoides [9] it was 80%.
For `CC(C)N(C(=O)n1ncn(S(=O)(=O)C2CC2)c1=O)c1c(F)cc(F)cc1F` [Compound 1-204], the “herbicidal effect … Echinochloa crus-galli” value with Echinochloa crus-galli [1] is on record as 100%. The “herbicidal effect … Amaranthus viridis” value with Amaranthus viridis was found to be 80%. Moreover, the “herbicidal effect … Chenopodium album” value in the assay with Chenopodium album is given as 60%. For the same compound, the “herbicidal effect … Crabgrass” value in the assay on crabgrass came to 100%. For the same compound, the “weed suppression rate, Echinochloa crus-galli” value in the assay with Echinochloa crus-galli [2] and in the assay on Echinochloa crus-galli [6] was 100% throughout. Besides, the “weed suppression rate, Monochoria vaginalis” value in the assay on Monochoria vaginalis [3] was found to be 80%; in the assay on Monochoria vaginalis [7] it was 100%. In addition, the results for the “weed suppression rate, Lindemia pyxidaria” value with Lindernia pyxidaria [4] and in the assay with Lindernia pyxidaria [8] were 100% and 80%, respectively. The “weed suppression rate, Scirpus juncoides” value in the assay with Scirpus juncoides [5] and with Scirpus juncoides [9] was 100% throughout.
Take `Cc1ccc(N(C(=O)n2ncn(S(=O)(=O)C(C)C)c2=O)C(C)C)c(Cl)c1` [Compound 1-81]: the “weed suppression rate, Echinochloa crus-galli” value in the assay with Echinochloa crus-galli [2] and with Echinochloa crus-galli [6] was 90% in each case. The “weed suppression rate, Monochoria vaginalis” value in the assay with Monochoria vaginalis [3] and in the assay with Monochoria vaginalis [7] was 80% in each case. In addition, the “weed suppression rate, Lindemia pyxidaria” value in the assay with Lindernia pyxidaria [4] and with Lindernia pyxidaria [8] was 80% throughout. Further, the “weed suppression rate, Scirpus juncoides” value in the assay with Scirpus juncoides [5] and in the assay with Scirpus juncoides [9] was 90% in each case.
For `CC(C)N(C(=O)n1ncn(S(=O)(=O)C2CCOC2)c1=O)c1ccc(F)cc1F` (racemic) [Compound 1-1161], the “weed suppression rate, Echinochloa crus-galli” value in the assay on Echinochloa crus-galli [2] and with Echinochloa crus-galli [6] was 90% each time. The “weed suppression rate, Monochoria vaginalis” value in the assay on Monochoria vaginalis [3] and with Monochoria vaginalis [7] was 80% throughout. The “weed suppression rate, Lindemia pyxidaria” value in the assay with Lindernia pyxidaria [4] and with Lindernia pyxidaria [8] was 80% in each case. The “weed suppression rate, Scirpus juncoides” value in the assay on Scirpus juncoides [5] and with Scirpus juncoides [9] was 90% throughout.
As for `CC(C)N(C(=O)n1ncn(S(=O)(=O)C2CCCCC2)c1=O)c1ccc(C(F)(F)F)cc1F` [Compound 1-323], the “weed suppression rate, Echinochloa crus-galli” value in the assay on Echinochloa crus-galli [2] and in the assay on Echinochloa crus-galli [6] was 100% throughout. The “weed suppression rate, Monochoria vaginalis” value worked out at 80% in the assay on Monochoria vaginalis [3] and 70% in the assay on Monochoria vaginalis [7]. The results for the “weed suppression rate, Lindemia pyxidaria” value with Lindernia pyxidaria [4] and in the assay with Lindernia pyxidaria [8] were 100% and 70%, respectively. Further, the “weed suppression rate, Scirpus juncoides” value in the assay on Scirpus juncoides [5] was 100%; with Scirpus juncoides [9], 70%.
Regarding `CC(C)N(C(=O)n1ncn(S(=O)(=O)C2CCCCC2)c1=O)c1ccccc1F` [Compound 1-296], the “weed suppression rate, Echinochloa crus-galli” value in the assay with Echinochloa crus-galli [2] and with Echinochloa crus-galli [6] was 90% each time. The “weed suppression rate, Monochoria vaginalis” value in the assay on Monochoria vaginalis [3] is recorded as 80%; in the assay with Monochoria vaginalis [7], 90%. Further, the “weed suppression rate, Lindemia pyxidaria” value in the assay on Lindernia pyxidaria [4] is 80%; in the assay on Lindernia pyxidaria [8], 90%. The “weed suppression rate, Scirpus juncoides” value with Scirpus juncoides [5] and in the assay with Scirpus juncoides [9] was 90% each time.
As for `CC(C)N(C(=O)n1ncn(S(=O)(=O)N(C)C)c1=O)c1cccnc1F` [Compound 1-1128], the “weed suppression rate, Echinochloa crus-galli” value in the assay with Echinochloa crus-galli [2] and with Echinochloa crus-galli [6] was 90% in each case. Moreover, the “weed suppression rate, Monochoria vaginalis” value with Monochoria vaginalis [3] and in the assay with Monochoria vaginalis [7] was 60% throughout. Further, the “weed suppression rate, Lindemia pyxidaria” value in the assay with Lindernia pyxidaria [4] and with Lindernia pyxidaria [8] was 90% each time. For the same compound, the “weed suppression rate, Scirpus juncoides” value with Scirpus juncoides [5] and in the assay on Scirpus juncoides [9] was 70% throughout.
As to `Cc1cc(F)ccc1N(C(=O)n1ncn(S(=O)(=O)C2CC2)c1=O)C(C)C` [Compound 1-220], the “weed suppression rate, Echinochloa crus-galli” value in the assay on Echinochloa crus-galli [2] and in the assay on Echinochloa crus-galli [6] was 100% throughout. In addition, the figures for the “weed suppression rate, Monochoria vaginalis” value with Monochoria vaginalis [3] and in the assay with Monochoria vaginalis [7] were 80% and 100%, respectively. Also, the “weed suppression rate, Lindemia pyxidaria” value is recorded as 100% in the assay with Lindernia pyxidaria [4] and 90% in the assay on Lindernia pyxidaria [8]. For the same compound, the “weed suppression rate, Scirpus juncoides” value in the assay on Scirpus juncoides [5] and in the assay with Scirpus juncoides [9] was 90% in each case.
With `Cc1cc(C)c(S(=O)(=O)n2cnn(C(=O)N(c3cccnc3F)C(C)C)c2=O)c(C)c1` [Compound 1-921], the “weed suppression rate, Echinochloa crus-galli” value in the assay with Echinochloa crus-galli [2] was found to be 90%; in the assay with Echinochloa crus-galli [6], 80%. Also, the “weed suppression rate, Monochoria vaginalis” value in the assay with Monochoria vaginalis [3] and in the assay on Monochoria vaginalis [7] was 60% in each case. Further, the “weed suppression rate, Lindemia pyxidaria” value in the assay on Lindernia pyxidaria [4] and with Lindernia pyxidaria [8] was 80% each time. Moreover, the “weed suppression rate, Scirpus juncoides” value in the assay with Scirpus juncoides [5] and in the assay on Scirpus juncoides [9] was 70% throughout.
Regarding `CC(C)N(C(=O)n1ncn(S(=O)(=O)C2CCCCC2)c1=O)c1ccc(Cl)cc1F` [Compound 1-314], the “weed suppression rate, Echinochloa crus-galli” value worked out at 100% with Echinochloa crus-galli [2] and 90% in the assay on Echinochloa crus-galli [6]. For the same compound, the “weed suppression rate, Monochoria vaginalis” value in the assay with Monochoria vaginalis [3] is on record as 80%; in the assay with Monochoria vaginalis [7], 90%. Besides, the “weed suppression rate, Lindemia pyxidaria” value in the assay on Lindernia pyxidaria [4] and with Lindernia pyxidaria [8] was 100% throughout. Besides, the “weed suppression rate, Scirpus juncoides” value in the assay on Scirpus juncoides [5] and in the assay with Scirpus juncoides [9] was 100% throughout.
For the compound `CC(C)N(C(=O)n1ncn(S(=O)(=O)C2CCCCC2)c1=O)c1c(F)cc(F)cc1F` [Compound 1-310], the “weed suppression rate, Echinochloa crus-galli” value in the assay on Echinochloa crus-galli [2] and with Echinochloa crus-galli [6] was 100% in each case. The “weed suppression rate, Monochoria vaginalis” value with Monochoria vaginalis [3] and in the assay on Monochoria vaginalis [7] was 100% in each case. Also, the “weed suppression rate, Lindemia pyxidaria” value with Lindernia pyxidaria [4] and in the assay with Lindernia pyxidaria [8] was 100% throughout. Moreover, the “weed suppression rate, Scirpus juncoides” value in the assay with Scirpus juncoides [5] and in the assay with Scirpus juncoides [9] was 100% in each case.
